Data on one compound can be found in article PMC3111596 (Biochemistry, 2011).

This experiment deals with N-terminal truncated LSD1 (171–852 aa) (Homo sapiens, UniProt O60341). The experiment in a line: LSD1-folate binding by back-scattering interferometry. The note with it: N-terminal truncated LSD1 vs full-size LSD1.

With `Nc1nc2c(c(=O)[nH]1)NC(CNc1ccc(C(=O)N[C@@H](CCC(=O)N[C@@H](CCC(=O)N[C@@H](CCC(=O)N[C@@H](CCC(=O)N[C@@H](CCC(=O)O)C(=O)O)C(=O)O)C(=O)O)C(=O)O)C(=O)O)cc1)CN2` (mixture of isomers) [(6R,S)-THF-Glu5, Tetrahydrofolate pentaglutamate], the “Affinity of truncated LSD1 compared with full-size protein” value was “same affinity as the full-size protein”.
